Data on one compound can be found in publication PMC5446409 (Scientific Reports, 2017).

The target in experiment [1] is T1, hERG (hKv11.1) (Homo sapiens, UniProt Q12809).
T1 construct: gene KCNH2; human KCNH2 stably expressed in HEK293 cells
Put plainly: automated patch clamp of I Kr in hERG-HEK293 cells; independently verified in hERG-CHO ([…] at […]). The class given is cell-based.

The target in experiment [2] is T2, hCav1.2 (L-type calcium channel, LTCC) (Homo sapiens, UniProt Q13936).
T2 construct: gene CACNA1C; hCav1.2/β2/α2δ1 channel stably expressed in CHO cells; with CACNB2 (β2) and CACNA2D1 (α2δ1) subunits
T2 sequence (Q13936 whole entry): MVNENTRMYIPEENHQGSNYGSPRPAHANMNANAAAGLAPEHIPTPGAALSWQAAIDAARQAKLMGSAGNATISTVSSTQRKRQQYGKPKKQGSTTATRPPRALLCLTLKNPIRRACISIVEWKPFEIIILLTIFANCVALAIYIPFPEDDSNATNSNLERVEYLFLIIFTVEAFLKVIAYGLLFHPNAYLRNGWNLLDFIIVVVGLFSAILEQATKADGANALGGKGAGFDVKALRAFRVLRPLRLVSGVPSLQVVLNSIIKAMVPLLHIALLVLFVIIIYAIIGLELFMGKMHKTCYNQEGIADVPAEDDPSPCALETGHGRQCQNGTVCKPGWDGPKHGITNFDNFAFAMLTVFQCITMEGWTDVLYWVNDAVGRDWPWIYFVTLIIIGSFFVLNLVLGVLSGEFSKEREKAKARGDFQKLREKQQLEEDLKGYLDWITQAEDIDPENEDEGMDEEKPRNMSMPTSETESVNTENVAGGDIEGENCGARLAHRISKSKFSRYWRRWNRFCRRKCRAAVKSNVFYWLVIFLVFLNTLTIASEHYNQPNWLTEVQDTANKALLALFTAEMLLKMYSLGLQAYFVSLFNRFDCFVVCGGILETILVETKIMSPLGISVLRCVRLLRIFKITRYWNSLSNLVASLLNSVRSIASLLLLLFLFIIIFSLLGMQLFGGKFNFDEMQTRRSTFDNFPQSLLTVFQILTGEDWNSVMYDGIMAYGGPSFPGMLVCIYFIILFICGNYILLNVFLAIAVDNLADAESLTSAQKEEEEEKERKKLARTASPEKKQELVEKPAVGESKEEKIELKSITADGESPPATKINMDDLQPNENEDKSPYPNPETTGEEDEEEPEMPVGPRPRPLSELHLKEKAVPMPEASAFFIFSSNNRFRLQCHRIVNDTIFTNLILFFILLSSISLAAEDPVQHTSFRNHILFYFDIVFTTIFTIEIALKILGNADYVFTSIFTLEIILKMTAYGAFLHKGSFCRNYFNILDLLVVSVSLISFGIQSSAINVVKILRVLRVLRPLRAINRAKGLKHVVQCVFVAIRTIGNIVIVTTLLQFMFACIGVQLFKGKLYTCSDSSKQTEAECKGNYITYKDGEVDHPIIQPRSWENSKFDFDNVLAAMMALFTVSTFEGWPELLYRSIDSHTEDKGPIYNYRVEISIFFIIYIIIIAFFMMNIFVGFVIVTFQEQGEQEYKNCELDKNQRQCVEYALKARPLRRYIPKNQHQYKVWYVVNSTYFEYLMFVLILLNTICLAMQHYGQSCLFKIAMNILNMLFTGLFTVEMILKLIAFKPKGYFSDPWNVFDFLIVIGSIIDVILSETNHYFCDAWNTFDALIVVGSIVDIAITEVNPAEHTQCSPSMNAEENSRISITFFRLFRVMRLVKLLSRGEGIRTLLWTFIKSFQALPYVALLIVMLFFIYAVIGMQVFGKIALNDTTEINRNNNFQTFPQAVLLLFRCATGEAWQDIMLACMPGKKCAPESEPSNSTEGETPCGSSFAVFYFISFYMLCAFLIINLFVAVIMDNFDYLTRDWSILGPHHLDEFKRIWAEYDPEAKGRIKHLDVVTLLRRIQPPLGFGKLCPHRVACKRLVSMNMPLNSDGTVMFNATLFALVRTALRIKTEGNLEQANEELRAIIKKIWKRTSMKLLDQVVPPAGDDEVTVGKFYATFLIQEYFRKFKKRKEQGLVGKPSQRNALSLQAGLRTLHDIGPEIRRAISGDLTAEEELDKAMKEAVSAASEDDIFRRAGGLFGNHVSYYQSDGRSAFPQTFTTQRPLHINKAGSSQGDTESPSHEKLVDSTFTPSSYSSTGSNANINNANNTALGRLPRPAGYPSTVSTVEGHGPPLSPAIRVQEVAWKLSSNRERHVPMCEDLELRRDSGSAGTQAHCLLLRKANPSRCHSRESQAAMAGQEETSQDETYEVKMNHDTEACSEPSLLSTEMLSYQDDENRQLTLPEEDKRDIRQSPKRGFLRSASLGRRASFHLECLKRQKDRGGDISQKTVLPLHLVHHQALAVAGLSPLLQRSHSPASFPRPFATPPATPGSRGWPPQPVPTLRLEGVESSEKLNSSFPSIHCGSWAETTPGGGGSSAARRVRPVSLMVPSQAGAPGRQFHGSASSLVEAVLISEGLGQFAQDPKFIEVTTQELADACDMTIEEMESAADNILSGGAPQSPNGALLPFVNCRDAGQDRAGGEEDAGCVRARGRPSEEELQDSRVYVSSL
T2 sequence (Q08289 whole entry partner): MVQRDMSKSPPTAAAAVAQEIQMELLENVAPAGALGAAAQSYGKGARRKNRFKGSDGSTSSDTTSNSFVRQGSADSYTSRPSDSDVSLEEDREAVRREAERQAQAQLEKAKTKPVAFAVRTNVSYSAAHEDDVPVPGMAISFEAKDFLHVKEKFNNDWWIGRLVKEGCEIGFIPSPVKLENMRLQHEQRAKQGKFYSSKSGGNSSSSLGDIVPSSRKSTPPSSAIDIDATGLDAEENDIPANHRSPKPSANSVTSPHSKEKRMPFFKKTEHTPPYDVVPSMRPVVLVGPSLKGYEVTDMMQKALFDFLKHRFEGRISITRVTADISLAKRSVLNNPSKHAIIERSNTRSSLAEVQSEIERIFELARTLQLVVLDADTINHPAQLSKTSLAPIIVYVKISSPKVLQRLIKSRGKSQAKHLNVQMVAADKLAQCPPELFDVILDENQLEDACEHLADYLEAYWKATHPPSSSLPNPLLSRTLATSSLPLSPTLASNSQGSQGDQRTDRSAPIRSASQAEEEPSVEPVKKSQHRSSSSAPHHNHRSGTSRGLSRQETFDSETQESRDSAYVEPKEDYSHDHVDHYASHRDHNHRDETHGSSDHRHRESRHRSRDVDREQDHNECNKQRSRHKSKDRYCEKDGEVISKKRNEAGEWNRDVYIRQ
T2 sequence (P54289 25-956 partner): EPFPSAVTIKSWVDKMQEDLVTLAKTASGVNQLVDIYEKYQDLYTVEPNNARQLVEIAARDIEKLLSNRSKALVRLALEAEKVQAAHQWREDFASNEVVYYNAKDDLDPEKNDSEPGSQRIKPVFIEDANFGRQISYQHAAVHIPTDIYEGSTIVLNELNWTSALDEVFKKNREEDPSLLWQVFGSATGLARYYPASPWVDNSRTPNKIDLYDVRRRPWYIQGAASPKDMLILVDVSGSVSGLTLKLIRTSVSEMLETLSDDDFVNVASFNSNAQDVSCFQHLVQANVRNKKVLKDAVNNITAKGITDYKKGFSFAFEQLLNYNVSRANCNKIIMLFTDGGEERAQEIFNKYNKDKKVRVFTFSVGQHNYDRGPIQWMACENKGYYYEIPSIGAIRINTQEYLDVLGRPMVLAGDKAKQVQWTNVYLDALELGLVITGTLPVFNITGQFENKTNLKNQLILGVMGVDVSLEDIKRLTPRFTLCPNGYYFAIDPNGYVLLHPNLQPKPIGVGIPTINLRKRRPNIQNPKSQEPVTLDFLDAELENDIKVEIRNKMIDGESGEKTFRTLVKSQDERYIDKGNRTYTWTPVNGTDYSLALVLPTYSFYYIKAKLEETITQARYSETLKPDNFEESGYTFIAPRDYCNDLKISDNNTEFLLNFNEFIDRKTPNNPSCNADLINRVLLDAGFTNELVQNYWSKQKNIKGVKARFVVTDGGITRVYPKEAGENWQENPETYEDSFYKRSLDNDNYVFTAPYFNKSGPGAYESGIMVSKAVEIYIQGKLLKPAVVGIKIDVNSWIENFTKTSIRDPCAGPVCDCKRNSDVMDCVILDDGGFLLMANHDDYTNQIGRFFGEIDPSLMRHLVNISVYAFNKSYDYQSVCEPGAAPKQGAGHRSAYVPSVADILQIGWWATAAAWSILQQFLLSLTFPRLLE
T2 sequence (P54289 957-1103 partner): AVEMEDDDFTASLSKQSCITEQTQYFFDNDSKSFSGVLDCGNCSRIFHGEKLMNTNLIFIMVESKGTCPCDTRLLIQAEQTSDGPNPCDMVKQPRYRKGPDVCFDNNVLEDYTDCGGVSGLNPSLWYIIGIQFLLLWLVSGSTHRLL
Put plainly: automated patch clamp of I Ca,L in Cav1.2-CHO cells; confirmed by conventional patch clamp with Ba2+ as charge carrier. The class given is cell-based.

A value given as a limit tells only on which side of the number the result lay.

T1 sequence (Q12809 whole entry): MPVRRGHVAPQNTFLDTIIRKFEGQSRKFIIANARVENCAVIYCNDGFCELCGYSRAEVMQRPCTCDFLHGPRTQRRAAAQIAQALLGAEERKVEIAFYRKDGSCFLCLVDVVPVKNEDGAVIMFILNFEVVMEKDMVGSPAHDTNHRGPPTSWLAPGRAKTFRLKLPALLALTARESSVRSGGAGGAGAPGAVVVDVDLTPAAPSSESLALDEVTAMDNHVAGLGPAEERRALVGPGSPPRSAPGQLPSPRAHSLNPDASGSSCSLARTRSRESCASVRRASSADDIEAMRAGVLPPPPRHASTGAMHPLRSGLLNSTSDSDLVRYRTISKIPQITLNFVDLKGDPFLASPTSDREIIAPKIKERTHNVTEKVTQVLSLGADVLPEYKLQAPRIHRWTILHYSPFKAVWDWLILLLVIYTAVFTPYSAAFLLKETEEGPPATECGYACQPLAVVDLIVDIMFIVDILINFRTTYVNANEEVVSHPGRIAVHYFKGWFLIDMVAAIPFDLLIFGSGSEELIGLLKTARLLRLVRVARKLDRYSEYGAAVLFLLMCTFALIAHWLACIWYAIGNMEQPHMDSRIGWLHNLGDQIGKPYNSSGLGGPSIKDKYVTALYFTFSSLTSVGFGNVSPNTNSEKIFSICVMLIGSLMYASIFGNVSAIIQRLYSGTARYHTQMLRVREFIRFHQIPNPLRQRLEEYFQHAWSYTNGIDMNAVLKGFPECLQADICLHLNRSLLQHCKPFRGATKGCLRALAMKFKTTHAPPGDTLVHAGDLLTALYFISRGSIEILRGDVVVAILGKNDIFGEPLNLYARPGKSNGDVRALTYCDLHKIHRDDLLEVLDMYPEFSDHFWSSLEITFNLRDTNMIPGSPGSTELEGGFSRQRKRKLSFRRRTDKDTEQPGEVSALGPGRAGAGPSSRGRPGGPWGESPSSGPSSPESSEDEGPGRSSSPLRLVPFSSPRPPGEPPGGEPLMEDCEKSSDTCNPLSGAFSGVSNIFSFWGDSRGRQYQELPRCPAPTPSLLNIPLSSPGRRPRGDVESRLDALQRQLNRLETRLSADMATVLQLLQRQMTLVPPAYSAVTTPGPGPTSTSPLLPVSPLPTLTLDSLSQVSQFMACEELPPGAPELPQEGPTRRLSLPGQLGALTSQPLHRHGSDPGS

For orientation: IC50 means the concentration that gives 50% inhibition. As for `C[C@]12CC[C@H](O)C[C@H]1CC[C@@H]1[C@@H]2CC[C@]2(C)[C@@H](c3ccc(=O)oc3)CC[C@]12O` [BF, bufalin], the IC50 was over 100 µM in experiment [1] and 12.5 µM in experiment [2].
